PubChem BioAssay AID330 (DTP/NCI, 2004)
Several values for one entry are separate records, joined by “and”; a condition that tells them apart may be missing. Equal entries are not always repeated. Inconclusive results and toxic doses are left out. Square brackets hold non-standard residues; d marks the D form. Peptide text beside a SMILES is read from it. Tyr(3-NO2) = N[CH](Cc1ccc(O)c([N+](=O)[O-])c1)C(=O)O

Test system: P388 leukemia ip, CD2F1 mice, survival T/C
Assay: NCI In Vivo Anticancer Drug Screen. Data for tumor model P388 Leukemia (intraperitoneal) in CD2F1 (CDF1) mice
Details: endpoint: median survival time, higher = longer survival
Method in brief: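 Mice carrying the transplanted tumor received test compound or vehicle. Survival was recorded in each group, and the value is the treated-group measurement divided by that of the vehicle-treated control group.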

[1] = dose: 100.0 mg/kg/injection, schedule: Q04DX003 (ip), vehicle: saline with Tween-80
[2] = dose: 200.0 mg/kg/injection, schedule: Q04DX003 (ip), vehicle: saline with Tween-80
[3] = dose: 400.0 mg/kg/injection, schedule: Q04DX003 (ip), vehicle: saline with Tween-80
[4] = dose: 50.0 mg/kg/injection, schedule: Q01DX005 (ip), vehicle: Klucel (hydroxypropylcellulose) (HPC)
[5] = dose: 100.0 mg/kg/injection, schedule: Q01DX005 (ip), vehicle: Klucel (hydroxypropylcellulose) (HPC)
[6] = dose: 200.0 mg/kg/injection, schedule: Q01DX005 (ip), vehicle: Klucel (hydroxypropylcellulose) (HPC)
[7] = dose: 25.0 mg/kg/injection, schedule: Q01DX009 (ip), vehicle: saline with Tween-80
[8] = dose: 50.0 mg/kg/injection, schedule: Q01DX009 (ip), vehicle: saline with Tween-80
[9] = dose: 100.0 mg/kg/injection, schedule: Q01DX009 (ip), vehicle: saline with Tween-80
[10] = dose: 200.0 mg/kg/injection, schedule: Q01DX009 (ip), vehicle: saline with Tween-80

For `COc1ccc(C(=O)NC(c2ccccc2)c2cccs2)cc1` (centres undefined), the T/C (dose: 100.0 mg/kg/injection, schedule: Q01DX001 (ip), vehicle: Klucel (hydroxypropylcellulose) (HPC)) was 113 % of control, the T/C (dose: 200.0 mg/kg/injection, schedule: Q01DX001 (ip), vehicle: Klucel (hydroxypropylcellulose) (HPC)) was 104 % of control and the T/C (dose: 400.0 mg/kg/injection, schedule: Q01DX001 (ip), vehicle: Klucel (hydroxypropylcellulose) (HPC)) was 109 % of control.

In the case of `O=S(=O)(O)O.O=S(=O)([O-])[O-].O=[N+]([O-])O.[Co+3].[Co+3].[NH2-].[NH2-].[NH2-].[NH2-].[NH2-].[NH2-].[NH2-].[NH2-].[NH2-]`, the T/C (dose: 1.0 mg/kg/injection, schedule: Q01DX009 (ip), vehicle: saline) is reported as 98 % of control and the T/C (dose: 2.0 mg/kg/injection, schedule: Q01DX009 (ip), vehicle: saline) is reported as 93 % of control.

For `CC1CCC(c2ccoc2)N2C1CCC(C)(Sc1ccccc1)C2O` (centres undefined), the T/C (dose: 5.5 mg/kg/injection, schedule: Q01DX004 (ip), vehicle: DMSO) was 95 % of control, the T/C (dose: 11.0 mg/kg/injection, schedule: Q01DX004 (ip), vehicle: DMSO) was 115 % of control and the T/C (dose: 22.0 mg/kg/injection, schedule: Q01DX004 (ip), vehicle: DMSO) was 113 % of control. The T/C (dose: 25.0 mg/kg/injection, schedule: Q01DX001 (ip), vehicle: other) was 103 % of control, the T/C (dose: 44.0 mg/kg/injection, schedule: Q01DX004 (ip), vehicle: DMSO) was 105 % of control and the T/C (dose: 50.0 mg/kg/injection, schedule: Q01DX001 (ip), vehicle: other) was 98 % of control. The T/C (dose: 100.0 mg/kg/injection, schedule: Q01DX001 (ip), vehicle: other) was 98 % of control.

In the case of `CC1CCCC(OC(=O)Nc2ccccc2)C1` (centres undefined), the T/C [1] is reported as 105 % of control, the T/C [2] is reported as 103 % of control and the T/C [3] is reported as 96 % of control.

`Cc1cccc([B-]23OCC[N+]2(CNC(=O)c2ccccc2O)CCO3)c1` (centres undefined) was tested, and the T/C [4] was 105 % of control, the T/C [5] was 104 % of control and the T/C [6] was 104 % of control.

In the case of `NC(=O)C(Cc1ccc(O)c([N+](=O)[O-])c1)NC(=O)C(N)Cc1ccccc1` (centres undefined) (H-Phe-[Tyr(3-NO2)]-NH2; configuration not given here), the T/C [4] is reported as 103 % of control, the T/C [5] is reported as 96 % of control and the T/C [6] is reported as 96 % of control.

In the case of `O=C(NC(Cc1ccccc1)C(=O)CBr)OCc1ccccc1` (centres undefined), the T/C (dose: 12.5 mg/kg/injection, schedule: Q01DX001 (ip), vehicle: saline with Tween-80) is reported as 100 % of control, the T/C (dose: 25.0 mg/kg/injection, schedule: Q01DX001 (ip), vehicle: saline with Tween-80) is reported as 104 % of control and the T/C (dose: 50.0 mg/kg/injection, schedule: Q01DX001 (ip), vehicle: saline with Tween-80) is reported as 109 % of control.

For `O=C1CSC(c2ccccc2O)N1c1nncs1` (centres undefined), the T/C (dose: 50.0 mg/kg/injection, schedule: Q01DX005 (ip), vehicle: saline with Tween-80) was 94 % of control, the T/C (dose: 100.0 mg/kg/injection, schedule: Q01DX005 (ip), vehicle: saline with Tween-80) was 93 % of control and the T/C (dose: 200.0 mg/kg/injection, schedule: Q01DX005 (ip), vehicle: saline with Tween-80) was 93 % of control.

In the case of `O=C(Nc1n[nH]c(NC(=O)c2ccccc2)n1)c1ccccc1`, the T/C [4] is reported as 92 % of control and the T/C [5] is reported as 88 % of control.

`COc1c2c(c(OC)c3c1C(=O)c1ccccc1C3=O)CC=CC2` was tested, and the T/C (dose: 1.56 mg/kg/injection, schedule: Q01DX009 (ip), vehicle: water) was 101 % of control, the T/C (dose: 3.13 mg/kg/injection, schedule: Q01DX009 (ip), vehicle: water) was 104 % of control and the T/C (dose: 6.25 mg/kg/injection, schedule: Q01DX009 (ip), vehicle: water) was 103 % of control. For the same compound, the T/C (dose: 12.5 mg/kg/injection, schedule: Q01DX009 (ip), vehicle: water) was 103 % of control and the T/C (dose: 25.0 mg/kg/injection, schedule: Q01DX009 (ip), vehicle: water) was 100 % of control.

For `COC(=O)N/N=C\c1ccc(O)c(OC)c1`, the T/C (dose: 50.0 mg/kg/injection, schedule: Q04DX003 (ip), vehicle: saline) was 97 % of control, the T/C (dose: 100.0 mg/kg/injection, schedule: Q04DX003 (ip), vehicle: saline) was 101 % of control and the T/C (dose: 200.0 mg/kg/injection, schedule: Q04DX003 (ip), vehicle: saline) was 97 % of control. The T/C (dose: 400.0 mg/kg/injection, schedule: Q04DX003 (ip), vehicle: saline) was 101 % of control.

For `Oc1c(Br)cc(Br)cc1/C=N/NC(=S)NC12CC3CC(CC(C3)C1)C2`, the T/C (dose: 30.0 mg/kg/injection, schedule: Q01DX005 (ip), vehicle: Klucel (hydroxypropylcellulose) (HPC)) was 87 % of control, the T/C (dose: 60.0 mg/kg/injection, schedule: Q01DX005 (ip), vehicle: Klucel (hydroxypropylcellulose) (HPC)) was 87 % of control and the T/C (dose: 120.0 mg/kg/injection, schedule: Q01DX005 (ip), vehicle: Klucel (hydroxypropylcellulose) (HPC)) was 88 % of control and 93 % of control. The T/C (dose: 240.0 mg/kg/injection, schedule: Q01DX005 (ip), vehicle: Klucel (hydroxypropylcellulose) (HPC)) was 89 % of control.

`Nc1cnnc2nc[nH]c12` was tested, and the T/C (dose: 12.5 mg/kg/injection, schedule: Q01DX005 (ip), vehicle: Klucel (hydroxypropylcellulose) (HPC)) was 100 % of control, the T/C (dose: 25.0 mg/kg/injection, schedule: Q01DX005 (ip), vehicle: Klucel (hydroxypropylcellulose) (HPC)) was 101 % of control and the T/C [4] was 100 % of control and 111 % of control. The T/C [5] was 117 % of control.

With `COc1ccc(-c2coc3cc(OC4OC(CO)C(O)C(O)C4O)cc(O)c3c2=O)cc1` (centres undefined) the T/C [7] was 98 % of control, the T/C [8] was 92 % of control and the T/C [9] was 94 % of control.

In the case of `O=S(=O)(O)C(Nc1ccccc1)c1ccccc1` (centres undefined), the T/C [9] is reported as 100 % of control, the T/C (dose: 100.0 mg/kg/injection, schedule: Q04DX003 (ip), vehicle: saline sonified) is reported as 100 % of control and the T/C [10] is reported as 109 % of control. The T/C (dose: 200.0 mg/kg/injection, schedule: Q04DX003 (ip), vehicle: saline sonified) was 100 % of control, the T/C (dose: 400.0 mg/kg/injection, schedule: Q01DX009 (ip), vehicle: saline with Tween-80) was 104 % of control and the T/C (dose: 400.0 mg/kg/injection, schedule: Q04DX003 (ip), vehicle: saline sonified) was 100 % of control.

With `COc1ccc(CN2CC(C)N(N=Cc3c4c(O)c5c(O)c(C)c6c(c5c3O)C(=O)C(C)(O/C=C/C(OC)C(C)C(OC(C)=O)C(C)C(O)C(C)C(O)C(C)/C=C/C=C(\C)C(=O)N4)O6)C(C)C2)cc1` (centres undefined) the T/C [7] was 110 % of control, the T/C [8] was 103 % of control and 116 % of control and the T/C (dose: 50.0 mg/kg/injection, schedule: Q01DX009 (ip), vehicle: suspension in saline) was 112 % of control. For the same compound, the T/C [9] was 113 % of control and 119 % of control, the T/C (dose: 100.0 mg/kg/injection, schedule: Q01DX009 (ip), vehicle: suspension in saline) was 108 % of control and the T/C [10] was 119 % of control. The T/C (dose: 200.0 mg/kg/injection, schedule: Q01DX009 (ip), vehicle: suspension in saline) was 91 % of control.

With `COC12C(COC(N)=O)C3=C(C(=O)C(C)=C(N4CC4)C3=O)N1CC1NC12` (centres undefined) the T/C (dose: 0.13 mg/kg/injection, schedule: Q04DX003 (ip), vehicle: saline sonified) was 154 % of control, the T/C (dose: 0.25 mg/kg/injection, schedule: Q04DX003 (ip), vehicle: saline sonified) was 163 % of control and the T/C (dose: 0.33 mg/kg/injection, schedule: Q04DX003 (ip), vehicle: saline with Tween-80) was 91 % of control. The T/C (dose: 0.5 mg/kg/injection, schedule: Q04DX003 (ip), vehicle: saline sonified) was 181 % of control and the T/C (dose: 0.75 mg/kg/injection, schedule: Q04DX003 (ip), vehicle: saline with Tween-80) was 87 % of control.

`O=C(O)CCCCCCCCCCOc1ccc(Cl)cc1` was tested, and the T/C (dose: 50.0 mg/kg/injection, schedule: Q04DX003 (ip), vehicle: Klucel (hydroxypropylcellulose) (HPC)) was 96 % of control, the T/C (dose: 100.0 mg/kg/injection, schedule: Q04DX003 (ip), vehicle: Klucel (hydroxypropylcellulose) (HPC)) was 99 % of control and the T/C (dose: 200.0 mg/kg/injection, schedule: Q04DX003 (ip), vehicle: Klucel (hydroxypropylcellulose) (HPC)) was 105 % of control. The T/C (dose: 400.0 mg/kg/injection, schedule: Q04DX003 (ip), vehicle: Klucel (hydroxypropylcellulose) (HPC)) was 92 % of control.

`COc1cccc(N2C(=O)CSC2=S)c1` was tested, and the T/C [1] was 95 % of control, the T/C [2] was 100 % of control and the T/C [3] was 90 % of control.

With `COc1cc(-c2oc3ccccc3c(=O)c2O)cc(OC)c1OC` the T/C [8] was 93 % of control, the T/C [9] was 91 % of control and the T/C [10] was 93 % of control.

In the case of `Cc1cc(O)c2c(c1)C(=O)C13C(=C2O)C(=O)C2C(O)C1C1C(O)C3C(=O)C3=C(O)c4c(O)cc(C)cc4C(=O)C321` (centres undefined), the T/C (dose: 3.12 mg/kg/injection, schedule: Q01DX005 (ip), vehicle: Klucel (hydroxypropylcellulose) (HPC)) is reported as 110 % of control and the T/C (dose: 6.25 mg/kg/injection, schedule: Q01DX005 (ip), vehicle: Klucel (hydroxypropylcellulose) (HPC)) is reported as 100 % of control.
